Holding throughout (test): NCI anticancer screen, dose series, 48 h
The test system of experiment [1] is BT-549 breast.
Experiment [2] relates to DU-145 prostate.
The test system of experiment [3] is HS 578T breast.
In experiment [4] the test system is NCI/ADR-RES ovarian.
The subject of experiment [5] is T-47D breast.

Drawing on PubChem BioAssay (NCI), this text covers GI50 and TGI for eleven compounds.

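These data come from cells grown in 96-well plates and exposed to compound for 48 hours at five concentrations. At the GI50, growth is halved. The concentration for full growth arrest is given as TGI.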 A value given as a limit tells only on which side of the number the result lay.

For `O=C(Nc1ccncc1)C(=O)c1cn(S(=O)(=O)c2cccc(F)c2)c2ccccc12`, the GI50 in experiment [1] was 2.29 µM; in experiment [2], 6.2 µM; in experiment [3] it was 8.31 µM; in experiment [4], 1.16 µM; in experiment [5] it was 4.25 µM. For the same compound, the TGI is 86.8 µM in experiment [1]; more than 100 µM in experiment [2]; more than 100 µM in experiment [3]; 4.66 µM in experiment [4]; more than 100 µM in experiment [5].
For `CCCCCCCCn1ccc2cc(NC(=O)Cn3cc(CN4CCCC4)nn3)ccc21`, the GI50 in experiment [1] was 1.65 µM; in experiment [2], 3.12 µM; in experiment [3], 1.91 µM; in experiment [4], 2.08 µM; in experiment [5], 1.73 µM. Also, the TGI was found to be 3.39 µM in experiment [1]; 9.61 µM in experiment [2]; 4.74 µM in experiment [3]; 4.49 µM in experiment [4]; 3.76 µM in experiment [5].
For `C[N+]1=C(/C=C/c2ccc(O)c3ncccc23)C(C)(C)c2ccccc21`, the GI50 was 2.64 µM in experiment [1]; 2.98 µM in experiment [2]; 2.14 µM in experiment [3]; 0.634 µM in experiment [4]; 2.94 µM in experiment [5]. Also, the TGI in experiment [1] was 10.3 µM; in experiment [2] it was 12.1 µM; in experiment [3] it was 8.14 µM; in experiment [4], 6.08 µM; in experiment [5], 14.2 µM.
Regarding `CS(=O)(=O)CCNCc1ccc(-c2ccc3ncnc(Nc4ccc(OCc5ccccc5)cc4)c3c2)o1`, the GI50 in experiment [1] was 5.85 µM; in experiment [2] it was 5.3 µM; in experiment [3], 6.43 µM; in experiment [4] it was 6.71 µM; in experiment [5], 4.01 µM. The TGI in experiment [1] was 17.5 µM; in experiment [2], more than 25 µM; in experiment [3] it was more than 20.5 µM; in experiment [4], more than 25 µM; in experiment [5], more than 25 µM.
Consider `Cc1ccc(-c2nc3nc(-c4ccccc4)nc(N4CCCNCC4)c3o2)cc1`, for which the GI50 in experiment [1] was 1.63 µM; in experiment [2] it was 1.82 µM; in experiment [3] it was 1.83 µM; in experiment [4] it was 2.17 µM; in experiment [5], 1.73 µM. The TGI in experiment [1] is 3.19 µM; in experiment [2] it was 3.3 µM; in experiment [3] it was 4.02 µM; in experiment [4], 4.71 µM; in experiment [5], 3.5 µM.
For the compound `CC/C=C\C[C@H](F)C/C=C1/C(=O)C=C[C@@H]1C/C=C\CCCC(=O)O`, the GI50 was 6.07 µM in experiment [1]; 8.02 µM in experiment [2]; 13 µM in experiment [3]; 6.78 µM in experiment [4]; 6.37 µM in experiment [5]. For the same compound, the TGI in experiment [1] is 12.5 µM; in experiment [2], 32.4 µM; in experiment [3] it was more than 32.5 µM; in experiment [4], more than 32.5 µM; in experiment [5], 23.2 µM.
In the case of `COc1ccc2c(c1)CCCN2c1c2ccccc2nc2ccccc12`, the GI50 in experiment [1] was 0.49 µM; in experiment [2], 0.38 µM; in experiment [3] it was 0.314 µM; in experiment [4], 0.275 µM; in experiment [5] it was 0.662 µM. Further, the TGI in experiment [1] is 6.28 µM; in experiment [2], more than 100 µM; in experiment [3], 5.86 µM; in experiment [4], 0.771 µM; in experiment [5], more than 100 µM.
With `COc1ccc2c(c1)C(=O)c1c-2n(CCCn2ccnc2)c(=O)c2cc([N+](=O)[O-])ccc12`, the GI50 in experiment [1] was less than 0.0134 µM; in experiment [2] it was less than 0.01 µM; in experiment [3] it was 2.1 µM; in experiment [4] it was less than 0.01 µM; in experiment [5], less than 0.01 µM. Moreover, the TGI in experiment [1] is 0.744 µM; in experiment [2] it was less than 0.0294 µM; in experiment [3], more than 29 µM; in experiment [4], 0.192 µM.
`O=C1Nc2ccccc2C1(c1ccc(O)cc1)c1ccc(O)cc1`: the GI50 in experiment [1] was 0.0625 µM; in experiment [2], 21 µM; in experiment [3], 0.0932 µM; in experiment [4] it was 0.982 µM; in experiment [5] it was 0.0474 µM. For the same compound, the TGI was 0.541 µM in experiment [1]; 54.3 µM in experiment [2]; 0.298 µM in experiment [3]; more than 100 µM in experiment [4]; 0.245 µM in experiment [5].
Consider `COc1cc2ncn(-c3cc(OCc4cccs4)c(C(N)=O)s3)c2cc1OC`, for which the GI50 was 4.67 µM in experiment [1]; 0.935 µM in experiment [2]; 5.94 µM in experiment [3]; 2.22 µM in experiment [4]; 6.4 µM in experiment [5]. The TGI is more than 25 µM in experiment [1]; more than 8.22 µM in experiment [2]; more than 25 µM in experiment [3]; more than 25 µM in experiment [4]; more than 25 µM in experiment [5].
`COc1cc[nH]c1/C=C1\C(=O)Nc2ccc(F)c(C#CC3(O)CCNCC3)c21`: the GI50 in experiment [1] is 0.318 µM; in experiment [2], 0.0429 µM; in experiment [3] it was 0.0754 µM; in experiment [4] it was 2.11 µM; in experiment [5], 0.819 µM. Also, the TGI in experiment [1] was determined as 0.696 µM; in experiment [2], 2.14 µM; in experiment [3], 1.54 µM; in experiment [4], 8.24 µM; in experiment [5] it was 2.59 µM.
